This is an account of results in US20020028809A1 (SUNTORY LIMITED, priority 1999, published 2002).

As usually defined, the Ki is the dissociation constant of the complex between target and ligand, obtained from inhibition or displacement.

Like-named read-outs stand apart in the source and are kept apart here.

The target of assay [1] is T1, α1β1γδ subtype of nicotinic acetylcholine receptors (Rattus norvegicus, UniProt P18916+P25108+P25109+P25110).
T1 construct: Native receptor, no construct: "Triton X100 (2% w/v) was added
The experiment in a line: Binding assays at α1β1γδ subtype of nicotinic acetylcholine receptors ([3H]-α-bungarotoxin, rat muscle extract). Conditions: for remaining activity at 100 µM / remaining activity at 1000 µM: read-out: control % of [3H]-α-Bgt binding.

Assay [2] deals with T2, human α4β2 subtype of nicotinic acetylcholine receptors (Homo sapiens, UniProt P17787+P43681).
T2 construct: expressed in transfected cells; host or cells: Xenopus laevis oocytes injected with 50 ng each of α4 and β2 cRNA (pSP64 polyA vector)
The experiment in a line: Agonist activities at human α4β2 subtype of nicotinic acetylcholine receptors expressed in Xenopus oocytes (membrane potential holding method). Format: cell-based. Conditions: for Emax at 100 µM: read-out: Agonist activity: control % by response at 100 μM of the test compound. As to the method:
Agonist effect in human α4β2 subtype of nicotinic acetylcholine receptors are examined by using human nicotinic acetylcholine receptors prepared in oocytes of Xenopus laevis, which is injected with cRNA from the corresponding cloning cDNA of human α4 and β2 subunits of nicotinic acetylcholine receptors, and to measure the expression of electric response by adding the test compounds to perfusion solution by means of membrane potential holding method.
Agonist Activities at Human α4β2 Subtype of Nicotinic Acetylcholine Receptors
(1) Preparation of cRNA of Human α4β2 Subtype of Nicotinic Acetylcholine Receptors
Obtained hnACh-R α4 cDNA and hnACh-R β2 cDNA were inserted to the cRNA expression vector (pSP64 polyA) having SP6 RNA promoter to construct hnACh-R α4/pSP64 polyA and hnACh-R β2/pSP64 polyA, respectively. After cutting from expression vector by restriction enzyme (EcoRI), transcription was performed by affecting SP6 RNA polymerase in the presence of cap analogues to obtain hnACh-R α4 cRNA and hnACh-R β2 cRNA, respectively.
(2) Expression of Human α4β2 Subtype Nicotinic Acetylcholine Receptors in Xenopus oocytes
Oocytes were purchased from Kitanihonseibutsukyohzai Co., Ltd., which were already enucleated from Xenopus laevis, and used in this experiment.
The oocytes were treated with collagenase (Sigma type I; 1 mg/ml) in calcium-free modified Birth's solution (88 mM of NaCl, 1 mM of KCl, 2.4 mM of NaHCO3, 0.82 mM of MgSO4, 15 mM of HEPES, pH 7.6) under gently stirring at room temperature for 90 minutes, and washed out the enzyme from the tissue. Then, oocytes were separated from ovarian follicle by tweezers, and isolated oocytes were placed in antibiotics containing modified Birth's solution (88 mM of NaCl, 1 mM of KCl, 2.4 mM of NaHCO3, 0.82 mM of MgSO4, 15 mM of HEPES, pH 7.6, and 0.1 v/v% of mixture solution containing of penicillin and streptomycin for incubation; Sigma Co.). […] In oocytes, heterogeneous quintuple [(α4)2(β2)3] was composed by translation of injected cRNAs, and ion channel receptors were constructed on cell membrane.
(3) Agonist Activities at Human α4β2 Subtype of Nicotinic Acetylcholine Receptors
Recordings of response at human α4β2 subtype of nicotinic acetylcholine receptors by means of membrane potential holding method were performed as follow. […] Test compounds were added to the perfusion solution, and recorded the peak strength of induced inward current. In order to normalize the response of test compounds, the response with acetylcholine (Ach) were recorded before and after application of the test compounds. Generally in the oocytes just after isolated, the response of intrinsic muscarinic acetylcholine receptors, which is inward electric current caused by activation of calcium dependence chloride ion channels with increase of the intracellular calcium concentration by stimulation of receptors, is observed. […] Therefore, the responses observed in oocytes with injection of hnACh-R α4 cRNA and hnACh-R β2 cRNA, i.e., the inward current induced by the intracellular influx of sodium ion according to the stimulation of receptors, would be the freshly observed responses of human α4β2 subtype nicotinic acetylcholine receptors.

The mark [3] stands for this setting: Xenopus oocytes expressing human α4β2, held at −50 mV, peak inward current, read-out: Agonist activity (ED50).
Setting [4] is: 100 μM test compound, in comparison with the response at 10 μM acetylcholine (100%).

T2 sequence (P43681 29-627 limits assumed): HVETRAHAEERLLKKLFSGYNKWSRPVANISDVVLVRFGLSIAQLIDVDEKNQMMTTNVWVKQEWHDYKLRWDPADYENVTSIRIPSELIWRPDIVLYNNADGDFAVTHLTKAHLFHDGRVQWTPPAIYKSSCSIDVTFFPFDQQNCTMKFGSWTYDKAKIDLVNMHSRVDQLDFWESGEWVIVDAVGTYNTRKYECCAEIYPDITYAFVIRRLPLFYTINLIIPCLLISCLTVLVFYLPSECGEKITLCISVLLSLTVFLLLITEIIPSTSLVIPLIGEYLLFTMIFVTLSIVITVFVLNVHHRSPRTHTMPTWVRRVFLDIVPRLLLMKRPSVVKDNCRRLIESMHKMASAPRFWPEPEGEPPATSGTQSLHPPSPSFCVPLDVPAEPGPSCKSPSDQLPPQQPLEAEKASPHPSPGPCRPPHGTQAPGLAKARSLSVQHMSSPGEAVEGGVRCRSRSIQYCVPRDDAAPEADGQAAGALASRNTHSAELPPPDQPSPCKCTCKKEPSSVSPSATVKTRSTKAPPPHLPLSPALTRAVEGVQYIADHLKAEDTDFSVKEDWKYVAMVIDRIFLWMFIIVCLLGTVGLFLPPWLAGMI
T2 sequence (P17787 26-502): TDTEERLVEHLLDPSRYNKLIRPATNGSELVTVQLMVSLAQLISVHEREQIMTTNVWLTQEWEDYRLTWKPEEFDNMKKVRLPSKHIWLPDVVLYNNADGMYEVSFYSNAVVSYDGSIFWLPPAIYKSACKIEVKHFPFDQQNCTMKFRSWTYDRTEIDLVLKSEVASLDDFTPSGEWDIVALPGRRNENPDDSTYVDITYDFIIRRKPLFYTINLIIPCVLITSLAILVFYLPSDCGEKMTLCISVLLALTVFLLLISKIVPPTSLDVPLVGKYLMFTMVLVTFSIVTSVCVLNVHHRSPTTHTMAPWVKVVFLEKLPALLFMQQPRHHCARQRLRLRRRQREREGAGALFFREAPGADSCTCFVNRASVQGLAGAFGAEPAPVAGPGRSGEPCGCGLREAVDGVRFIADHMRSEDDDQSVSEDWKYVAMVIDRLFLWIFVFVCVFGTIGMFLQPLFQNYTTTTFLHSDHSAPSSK
T1 sequence (P25108 21-457): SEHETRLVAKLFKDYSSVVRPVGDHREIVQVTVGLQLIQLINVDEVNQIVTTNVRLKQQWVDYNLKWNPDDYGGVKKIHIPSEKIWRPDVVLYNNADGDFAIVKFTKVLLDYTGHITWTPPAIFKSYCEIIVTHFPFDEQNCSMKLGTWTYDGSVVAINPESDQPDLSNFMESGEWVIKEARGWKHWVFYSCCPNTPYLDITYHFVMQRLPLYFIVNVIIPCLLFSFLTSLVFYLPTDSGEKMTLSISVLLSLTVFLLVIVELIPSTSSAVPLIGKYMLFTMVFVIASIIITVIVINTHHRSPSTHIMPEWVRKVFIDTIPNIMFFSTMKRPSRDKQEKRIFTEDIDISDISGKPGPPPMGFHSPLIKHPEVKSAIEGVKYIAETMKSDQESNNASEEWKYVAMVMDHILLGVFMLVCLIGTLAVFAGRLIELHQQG
T1 sequence (P25110 22-517): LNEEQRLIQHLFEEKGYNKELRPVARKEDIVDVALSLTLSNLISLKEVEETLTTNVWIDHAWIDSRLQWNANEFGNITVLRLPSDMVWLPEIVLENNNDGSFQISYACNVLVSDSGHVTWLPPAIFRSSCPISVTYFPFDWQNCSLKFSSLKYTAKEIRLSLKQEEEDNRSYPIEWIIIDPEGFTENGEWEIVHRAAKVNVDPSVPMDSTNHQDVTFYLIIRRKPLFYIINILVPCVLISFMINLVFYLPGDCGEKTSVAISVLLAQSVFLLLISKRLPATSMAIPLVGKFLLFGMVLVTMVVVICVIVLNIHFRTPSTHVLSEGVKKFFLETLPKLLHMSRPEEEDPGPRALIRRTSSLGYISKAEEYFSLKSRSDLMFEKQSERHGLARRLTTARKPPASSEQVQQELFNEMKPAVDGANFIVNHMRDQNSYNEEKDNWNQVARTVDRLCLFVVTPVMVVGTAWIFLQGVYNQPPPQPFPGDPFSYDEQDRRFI
T1 sequence (P25109 24-501): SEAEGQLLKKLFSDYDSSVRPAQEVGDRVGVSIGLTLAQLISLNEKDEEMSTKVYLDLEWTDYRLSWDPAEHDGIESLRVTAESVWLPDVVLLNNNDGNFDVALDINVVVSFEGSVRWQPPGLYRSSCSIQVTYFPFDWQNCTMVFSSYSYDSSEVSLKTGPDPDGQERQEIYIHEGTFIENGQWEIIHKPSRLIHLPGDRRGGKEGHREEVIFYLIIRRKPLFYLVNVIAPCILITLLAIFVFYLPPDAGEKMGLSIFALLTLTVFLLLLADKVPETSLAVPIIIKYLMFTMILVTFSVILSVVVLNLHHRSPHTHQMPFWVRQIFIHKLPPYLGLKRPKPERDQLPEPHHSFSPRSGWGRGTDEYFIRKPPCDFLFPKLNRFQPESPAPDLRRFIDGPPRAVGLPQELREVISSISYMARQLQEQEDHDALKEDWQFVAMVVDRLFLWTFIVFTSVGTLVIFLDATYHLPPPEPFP

In the case of `N=c1sccn1Cc1ccc(Cl)nc1` [Compound 8, 3-(6-chloro-3-pyridyl)methyl-2-imino-2,3-dihydrothiazole], in assay [1], the affinity, expressed as Ki, was 10.2 µM. The EC50 in assay [2] (setting [3]) worked out at 4.2 µM.
In the case of `N=C1CCCN1Cc1ccc(Cl)nc1` [Compound 14, 1-(6-Chloro-3-pyridyl)methyl-2-iminopyrrolidine], in assay [1], the remaining activity at 100 µM was found to be 14% and the remaining activity at 1000 µM stood at 0%. The compound also registered an EC50 in assay [2] of 27.1 µM.
Take `N=c1sccn1Cc1ccc(F)nc1` [Compound 12, 3-(6-fluoro-3-pyridyl)methyl-2-imino-2,3-dihydrothiazole]: in assay [1], the remaining activity at 100 µM is 20% and the remaining activity at 1000 µM is -2%. Further, the Emax at 100 µM in assay [2] was 21%.
As to `N=C1SCCN1Cc1ccc(Cl)nc1` [Compound 5, 3-(6-chloro-3-pyridyl)methyl-2-iminothiazolidine], the Ki in assay [1] amounted to 7.65 µM. The Emax at 100 µM in assay [2] (setting [4]) amounted to 4.9%.
Take `N=C1SCCN1Cc1cnc(Cl)s1` [Compound 34, 3-(2-chloro-5-thiazolyl)methyl-2-iminothiazolidine]: in assay [1], the remaining activity at 100 µM worked out at 14% and the remaining activity at 1000 µM is -1%. Besides, in assay [2], the Emax at 100 µM worked out at 13%.
As for `N=C1SCCN1Cc1ccc(Cl)cc1` [Compound 31, 3-(4-chlorobenzyl)-2-iminothiazolidine], in assay [1], the remaining activity at 100 µM worked out at 37% and the remaining activity at 1000 µM was found to be 10%. For the same compound, in assay [2], the Emax at 100 µM turned out to be 4%.
The matching figures for `N=c1ccc(-c2ccccc2)nn1Cc1ccc(Cl)nc1` [Compound 44, 2-(6-chloro-3-pyridyl)methyl-3-imino-6-phenyl-2,3-dihydropyridazine]: 80%, 26% and 10%.
`Nc1nccn1Cc1ccc(Cl)nc1` [Compound 9, 2-amino-1-(6-chloro-3-pyridyl)methylimidazole]: in assay [1], the remaining activity at 100 µM was 86% and the remaining activity at 1000 µM is 49%. Further, the EC50 in assay [2] (setting [3]) was 92 µM.
Take `Nc1nccn1Cc1cccnc1` [Compound 55, 2-amino-i-(3-pyridyl)methylimidazole]: the Ki in assay [1] (rat muscle extract, [3H]-α-Bgt (1 nM), read-out: Affinities for receptors Ki α1β1γδ) was 66 µM. In assay [2] (setting [4]), the Emax at 100 µM is 17%.
With `N=C1SCCN1Cc1ccnnc1` [Compound 33, 2-imino-3-(4-pyridazinyl)methylthiazolidine], in assay [1], the remaining activity at 100 µM amounted to 15% and the remaining activity at 1000 µM was found to be 1%. Further, the Emax at 100 µM in assay [2] was 6%.
Take `N=C1NCCN1Cc1ccc(Cl)nc1` [Compound 13, 1-(6-Chloro-3-pyridyl)methyl-2-iminoimidazolidine]: in assay [1], the remaining activity at 100 µM was 26% and the remaining activity at 1000 µM was determined as 8%. Besides, the EC50 in assay [2] (setting [3]) is 14.7 µM.
As to `N=c1ccccn1Cc1ccc(Cl)nc1` [Compound 7, 1-(6-chloro-3-pyridyl)methyl-2-imino-1,2-dihydropyridine], the Ki in assay [1] came to 71.2 µM. For the same compound, the Emax at 100 µM in assay [2] (setting [4]) came out at 16%.
Turning to `N=c1sccn1Cc1ccc(Br)nc1` [Compound 11, 3-(6-bromo-3-pyridyl)methyl-2-imino-2,3-dihydrothiazole], in assay [1], the remaining activity at 100 µM worked out at 13% and the remaining activity at 1000 µM was found to be 5%. Besides, the Emax at 100 µM in assay [2] was determined as 47%.
